Data taken from patent US10159640B2, “Prebiotic oral care compositions containing amino acids” (COLGATE-PALMOLIVE COMPANY, priority 2013, dated 2018).

Tests used:
Type in all cases: cell-based
[1] = test system: beneficial oral bacteria and pathogenic oral bacteria; assay: Metabolic activity, whole panel: prebiotic effect; conditions: 48 hrs; threshold value of 2
Method: Substrates that were able to increase the metabolic activity of at least one of the above beneficial bacteria while not or only minimally increasing the growth of the pathogenic bacteria are considered to be prebiotic substrates. The extent of metabolic activity of the tested bacteria in the presence of the above-mentioned dipeptides after 24 hours and 48 hours was investigated through a high throughput phenotype microarray system (PM) for microbial cells (Biolog Inc.). Each PM can contain up to 95 different biochemical compounds (e.g. di-peptides) that may act as substrates for bacteria as well as one negative control, not containing the substrates. Microarray plates were used in which the different wells of each plate were pre-loaded (by the manufacturer, Biolog Inc.) with different di-peptides to be tested. Each bacterial species was tested using a separate microarray plate. Thus, a single bacterial species was tested with a variety of dipeptides on each particular plate. The microarrays are based on redox technology, using cell respiration as a universal reporter. Active cell respiration results in the reduction of a tetrazolium dye and in the formation of a strong color—for example, when using the tetrazolium dye “Biolog Redox Dye Mix D”, the color changes from transparent/colourless to purple when the dye is reduced. The observation of this color change indicates which of the substrates improve the metabolic activity and health of the cells. Each bacterial species was collected from blood agar plates (incubated for 48 hours anaerobically at 37° C.) and transferred to an IF-0 Base inoculation fluid (Biolog Inc.), which is a nutritionally poor medium. The resulting cell suspension was adjusted to a transmittance of 42% (relative to the transmittance of the base inoculation fluid with no bacterial species present) at 492 nm using a BioRad SmartSpec 3000 Photometer (the adjustment being effected by adding either further inoculation fluid or further bacteria until the transmittance of 42% was achieved). A 1:5 dilution of this suspension was prepared by mixing 3 mL of the 42% transmittance cell suspension with 15 mL of an inoculation fluid (which inoculation fluid was formed by mixing 11.6 mL sterile water, 62.5 mL IF-0 base inoculation fluid and 0.9 mL of the tetrazolium dye “Biolog Redox Dye mix D”), resulting in a final cell density which was equal to 85% transmittance using a BioRad SmartSpec 3000 Photometer. 680 μL of a 2M sodium succinate/200 μM ferric citrate solution in distilled water was added to 68 mL of the 85% transmittance cell suspension and 100 μL of this mixture was added to each well (the various di-peptides being already present in powder form in the relevant wells of the plate as obtained from the supplier i.e. Biolog Inc.). All plates were incubated in an anaerobic atmosphere at 37° C. Color changes were measured spectrophotometrically at 492 nm (Thermo Scientific Multiskan Ascent) at 24 hrs and 48 hrs using the same plate at both time points. […] After 24 hrs and 48 hrs under continuous shaking in a Multiscan microplate reader, the optical density (OD) of the synthetic medium at 24 hours and 48 hours was measured (using the microplate reader) at a wavelength of 492 nm for each combination of bacterium/dipeptide, and for each of their respective controls (i.e. which contained the particular bacterium but no dipeptide). […] The experiment was carried out three times for each combination of bacterium with dipeptide, with each repeat being carried out on a different day (thus providing three biological replicas). The controls were also carried out three times, as above. The values shown are the average (mean) of the three single values obtained (as detailed above) for each combination of bacterium with dipeptide, at 24 hrs and at 48 hrs. […] This value was selected in order to exclude low-stimulating metabolites and avoid false positive results.

[2] = test system: Streptococcus salivarius; assay: Metabolic activity, Biolog phenotype microarray; conditions: control without dipeptide = 1
Method: (§1) The extent of metabolic activity of the tested bacteria in the presence of the above-mentioned dipeptides after 24 hours and 48 hours was investigated through a high throughput phenotype microarray system (PM) for microbial cells (Biolog Inc.). Each PM can contain up to 95 different biochemical compounds (e.g. di-peptides) that may act as substrates for bacteria as well as one negative control, not containing the substrates. Microarray plates were used in which the different wells of each plate were pre-loaded (by the manufacturer, Biolog Inc.) with different di-peptides to be tested. Each bacterial species was tested using a separate microarray plate. Thus, a single bacterial species was tested with a variety of dipeptides on each particular plate. The microarrays are based on redox technology, using cell respiration as a universal reporter. Active cell respiration results in the reduction of a tetrazolium dye and in the formation of a strong color—for example, when using the tetrazolium dye “Biolog Redox Dye Mix D”, the color changes from transparent/colourless to purple when the dye is reduced. The observation of this color change indicates which of the substrates improve the metabolic activity and health of the cells. Each bacterial species was collected from blood agar plates (incubated for 48 hours anaerobically at 37° C.) and transferred to an IF-0 Base inoculation fluid (Biolog Inc.), which is a nutritionally poor medium. The resulting cell suspension was adjusted to a transmittance of 42% (relative to the transmittance of the base inoculation fluid with no bacterial species present) at 492 nm using a BioRad SmartSpec 3000 Photometer (the adjustment being effected by adding either further inoculation fluid or further bacteria until the transmittance of 42% was achieved). A 1:5 dilution of this suspension was prepared by mixing 3 mL of the 42% transmittance cell suspension with 15 mL of an inoculation fluid (which inoculation fluid was formed by mixing 11.6 mL sterile water, 62.5 mL IF-0 base inoculation fluid and 0.9 mL of the tetrazolium dye “Biolog Redox Dye mix D”), resulting in a final cell density which was equal to 85% transmittance using a BioRad SmartSpec 3000 Photometer. 680 μL of a 2M sodium succinate/200 μM ferric citrate solution in distilled water was added to 68 mL of the 85% transmittance cell suspension and 100 μL of this mixture was added to each well (the various di-peptides being already present in powder form in the relevant wells of the plate as obtained from the supplier i.e. Biolog Inc.). All plates were incubated in an anaerobic atmosphere at 37° C. Color changes were measured spectrophotometrically at 492 nm (Thermo Scientific Multiskan Ascent) at 24 hrs and 48 hrs using the same plate at both time points. […] After 24 hrs and 48 hrs under continuous shaking in a Multiscan microplate reader, the optical density (OD) of the synthetic medium at 24 hours and 48 hours was measured (using the microplate reader) at a wavelength of 492 nm for each combination of bacterium/dipeptide, and for each of their respective controls (i.e. which contained the particular bacterium but no dipeptide). […] The experiment was carried out three times for each combination of bacterium with dipeptide, with each repeat being carried out on a different day (thus providing three biological replicas). The controls were also carried out three times, as above. The values shown are the average (mean) of the three single values obtained (as detailed above) for each combination of bacterium with dipeptide, at 24 hrs and at 48 hrs.

[3] = test system: Actinomyces viscosus; assay: Metabolic activity, Biolog phenotype microarray; conditions: control without dipeptide = 1
Method: as §1

[4] = test system: Actinomyces naeslundii; assay: Metabolic activity, Biolog phenotype microarray; conditions: control without dipeptide = 1
Method: as §1

[5] = test system: Streptococcus mitis; assay: Metabolic activity, Biolog phenotype microarray; conditions: control without dipeptide = 1
Method: as §1

[6] = test system: Prevotella intermedia; assay: Metabolic activity, Biolog phenotype microarray; conditions: control without dipeptide = 1
Method: as §1

[7] = test system: Porphyromonas gingivalis; assay: Metabolic activity, Biolog phenotype microarray; conditions: control without dipeptide = 1
Method: as §1

[8] = test system: Streptococcus sobrinus; assay: Metabolic activity, Biolog phenotype microarray; conditions: control without dipeptide = 1
Method: as §1

[9] = test system: Fusobacterium nucleatum; assay: Metabolic activity, Biolog phenotype microarray; conditions: control without dipeptide = 1
Method: as §1

[10] = test system: Veillonella parvula; assay: Metabolic activity, Biolog phenotype microarray; conditions: control without dipeptide = 1
Method: as §1

[11] = test system: Capnocytophaga sputigena; assay: Metabolic activity, Biolog phenotype microarray; conditions: control without dipeptide = 1
Method: as §1

[12] = test system: Aggregatibacter actinomycetemcomitans; assay: Metabolic activity, Biolog phenotype microarray; conditions: control without dipeptide = 1
Method: as §1

[13] = test system: Streptococcus mutans; assay: Metabolic activity, Biolog phenotype microarray; conditions: control without dipeptide = 1
Method: as §1

[14] = test system: Tannerella forsythia; assay: Metabolic activity, Biolog phenotype microarray; conditions: control without dipeptide = 1
Method: as §1

[15] = test system: Streptococcus gordonii; assay: Metabolic activity, Biolog phenotype microarray; conditions: control without dipeptide = 1
Method: as §1

[16] = test system: Streptococcus sanguinis; assay: Metabolic activity, Biolog phenotype microarray; conditions: control without dipeptide = 1
Method: as §1

Compound | prebiotic effects (metabolic activity) [1] | metabolic activity: OD 492 nm divided by OD of control ([2]; 24 hrs) | metabolic activity: OD 492 nm divided by OD of control ([2]; 48 hrs) | metabolic activity: OD 492 nm divided by OD of control ([3]; 24 hrs) | metabolic activity: OD 492 nm divided by OD of control ([3]; 48 hrs) | metabolic activity: OD 492 nm divided by OD of control ([4]; 24 hrs) | metabolic activity: OD 492 nm divided by OD of control ([4]; 48 hrs) | metabolic activity: OD 492 nm divided by OD of control ([5]; 24 hrs) | metabolic activity: OD 492 nm divided by OD of control ([5]; 48 hrs) | metabolic activity: OD 492 nm divided by OD of control ([6]; 24 hrs) | metabolic activity: OD 492 nm divided by OD of control ([6]; 48 hrs) | metabolic activity: OD 492 nm divided by OD of control ([7]; 24 hrs) | metabolic activity: OD 492 nm divided by OD of control ([7]; 48 hrs) | metabolic activity: OD 492 nm divided by OD of control ([8]; 24 hrs) | metabolic activity: OD 492 nm divided by OD of control ([8]; 48 hrs) | metabolic activity: OD 492 nm divided by OD of control ([9]; 24 hrs) | metabolic activity: OD 492 nm divided by OD of control ([9]; 48 hrs) | metabolic activity: OD 492 nm divided by OD of control ([10]; 24 hrs) | metabolic activity: OD 492 nm divided by OD of control ([10]; 48 hrs) | metabolic activity: OD 492 nm divided by OD of control ([11]; 24 hrs) | further results
Glu-Trp | exhibited prebiotic effects | 1.0068 | 0.9525 | 1.5845 | 2.1016 | 1.1008 | 1.2040 | 0.9457 | 0.9396 | 1.0170 | 0.9148 | 0.9385 | 0.8770 | 1.0018 | 0.9874 | 0.9011 | 0.8364 | 0.8378 | 0.7873 | 1.7818 | metabolic activity: OD 492 nm divided by OD of control ([11]; 48 hrs): 1.4150; metabolic activity: OD 492 nm divided by OD of control ([12]; 24 hrs): 0.9494; metabolic activity: OD 492 nm divided by OD of control ([12]; 48 hrs): 0.8665; metabolic activity: OD 492 nm divided by OD of control ([13]; 24 hrs): 0.9492; metabolic activity: OD 492 nm divided by OD of control ([13]; 48 hrs): 1.0170; metabolic activity: OD 492 nm divided by OD of control ([14]; 24 hrs): 0.9320; metabolic activity: OD 492 nm divided by OD of control ([14]; 48 hrs): 0.9303; metabolic activity: OD 492 nm divided by OD of control ([15]; 24 hrs): 1.1537; metabolic activity: OD 492 nm divided by OD of control ([15]; 48 hrs): 1.4320; metabolic activity: OD 492 nm divided by OD of control ([16]; 24 hrs): 0.9983; metabolic activity: OD 492 nm divided by OD of control ([16]; 48 hrs): 1.0208
NC(Cc1c[nH]cn1)C(=O)NC(Cc1c[nH]c2ccccc12)C(=O)O (stereo not drawn) [His-Trp] | exhibited prebiotic effects | 0.9767 | 1.0689 | 1.8735 | 2.2797 | 1.3153 | 1.5439 | 0.9734 | 1.0242 | 1.0278 | 1.2057 | 1.0126 | 1.3518 | 1.0811 | 1.2074 | 0.9185 | 0.9774 | 1.1364 | 1.4269 | 1.3266 | metabolic activity: OD 492 nm divided by OD of control ([11]; 48 hrs): 1.3068; metabolic activity: OD 492 nm divided by OD of control ([12]; 24 hrs): 0.9439; metabolic activity: OD 492 nm divided by OD of control ([12]; 48 hrs): 0.9818; metabolic activity: OD 492 nm divided by OD of control ([13]; 24 hrs): 1.0292; metabolic activity: OD 492 nm divided by OD of control ([13]; 48 hrs): 1.5031; metabolic activity: OD 492 nm divided by OD of control ([14]; 24 hrs): 0.8973; metabolic activity: OD 492 nm divided by OD of control ([14]; 48 hrs): 0.9897; metabolic activity: OD 492 nm divided by OD of control ([15]; 24 hrs): 1.0431; metabolic activity: OD 492 nm divided by OD of control ([15]; 48 hrs): 1.1070; metabolic activity: OD 492 nm divided by OD of control ([16]; 24 hrs): 1.0228; metabolic activity: OD 492 nm divided by OD of control ([16]; 48 hrs): 1.0830
Trp-Leu | exhibited prebiotic effects | 1.0960 | 1.1505 | 1.6496 | 2.0774 | 1.1778 | 1.4354 | 1.0445 | 1.0524 | 1.0663 | 1.0399 | 1.0236 | 1.2127 | 1.1681 | 1.2761 | 0.9945 | 1.0254 | 0.8734 | 0.7918 | 0.8565 | metabolic activity: OD 492 nm divided by OD of control ([11]; 48 hrs): 0.9454; metabolic activity: OD 492 nm divided by OD of control ([12]; 24 hrs): 1.0357; metabolic activity: OD 492 nm divided by OD of control ([12]; 48 hrs): 1.1455; metabolic activity: OD 492 nm divided by OD of control ([13]; 24 hrs): 1.0145; metabolic activity: OD 492 nm divided by OD of control ([13]; 48 hrs): 1.1337; metabolic activity: OD 492 nm divided by OD of control ([14]; 24 hrs): 1.0234; metabolic activity: OD 492 nm divided by OD of control ([14]; 48 hrs): 1.1079; metabolic activity: OD 492 nm divided by OD of control ([15]; 24 hrs): 1.2109; metabolic activity: OD 492 nm divided by OD of control ([15]; 48 hrs): 1.2858; metabolic activity: OD 492 nm divided by OD of control ([16]; 24 hrs): 0.9310; metabolic activity: OD 492 nm divided by OD of control ([16]; 48 hrs): 0.9561
